From patent US6355474B1, “Immunostimulatory and metastasis inhibiting fermented vegetal material” (priority 1997, dated 2002)

Experiments:
[1] = Stability (storage) tests via 2.6-DMBQ / 2-MBQ concentration by HPLC; assay type: physicochemical
Method: The decomposition of the material according to the invention was checked via the chanqes in concentration of the 2.6-dimethoxy-p-benzoquinone. We conducted storage experiments at three different temperatures (room temperature 20° C. 40° C. and 60° C.) The lyophilisate—about 1 g—as stored in test-tubes which were sealed air-tight. The duration of the experiments was 8 weeks, every week three parallel measurements were conducted on samples taken from all three series kept at different temperatures. The quantitative analysis of benzoquinone derivatives was conducted by HPLC.

[2] = literature; cited from earlier work
malignant tumour cells = conditions: literature; cited from earlier work

Row | SMILES | decomposition of 2-methoxy-p-benzoquinone in the stored material ([1]; room temperature) | decomposition of 2-methoxy-p-benzoquinone in the stored material ([1]; samples kept at 40 or 60° C.) | fungicidal and bacteriostatic effect [2] | cytotoxicity for malignant tumour cells (malignant tumour cells)
1 | COC1=CC(=O)C=CC1=O [2-MBQ, 2-methoxy-p-benzoquinone] | remained unchanged | could not be shown after one week of storage | fungicidal and bacteriostatic effect | 
2 | COC1=CC(=O)C=C(OC)C1=O [2.6-DMBQ, 2.6-dimethoxy-p-benzoquinone] |  |  | fungicidal and bacteriostatic effect | cytotoxic
